Test results from paper PMC7215373, “Design, Synthesis, and Anticancer Evaluation of Novel Indole Derivatives of Ursolic Acid as Potential Topoisomerase II Inhibitors” (International Journal of Molecular Sciences, 2020).

What was measured:
[1] = biological target: T1, DNA topoisomerase I (Bos taurus, UniProt F1MN93); test: Topoisomerase I relaxation assay (supercoiled pBR322); type: biochemical; conditions: 100 μM compound; read-out: Topo I Inhibition (%) 100 μM
T1 construct: purchased TaKaRa, Kyoto, Japan
T1 sequence (F1MN93 1-767): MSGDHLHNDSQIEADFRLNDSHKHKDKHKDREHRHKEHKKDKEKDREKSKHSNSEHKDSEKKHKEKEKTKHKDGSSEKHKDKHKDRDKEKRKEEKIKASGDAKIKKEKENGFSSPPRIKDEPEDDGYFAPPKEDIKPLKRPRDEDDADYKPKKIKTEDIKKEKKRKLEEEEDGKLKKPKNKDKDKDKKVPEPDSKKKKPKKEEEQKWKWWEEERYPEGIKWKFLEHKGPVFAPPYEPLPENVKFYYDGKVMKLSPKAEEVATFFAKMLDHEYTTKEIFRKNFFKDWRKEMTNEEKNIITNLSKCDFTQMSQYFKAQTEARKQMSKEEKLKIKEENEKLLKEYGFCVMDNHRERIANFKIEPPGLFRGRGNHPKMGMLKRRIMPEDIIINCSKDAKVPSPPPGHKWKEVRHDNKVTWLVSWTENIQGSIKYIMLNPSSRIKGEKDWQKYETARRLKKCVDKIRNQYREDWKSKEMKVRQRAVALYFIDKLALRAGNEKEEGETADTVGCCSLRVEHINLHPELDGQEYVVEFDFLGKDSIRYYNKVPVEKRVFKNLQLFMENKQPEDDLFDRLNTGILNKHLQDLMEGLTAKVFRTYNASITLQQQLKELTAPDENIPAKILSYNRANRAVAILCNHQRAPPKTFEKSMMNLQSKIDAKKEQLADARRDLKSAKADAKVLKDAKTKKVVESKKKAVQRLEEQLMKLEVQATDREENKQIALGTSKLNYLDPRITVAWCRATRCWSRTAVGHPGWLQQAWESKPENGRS
In short: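 Relaxation of supercoiled pBR322 by topoisomerase I, 30 min at 37 °C; stopped with SDS dye. Products resolved on 1% agarose in 1× TAE for 1 h, ethidium bromide-stained, with relaxed vs supercoiled DNA visualized under UV.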

[2] = system: HepG2 cells; test: MTT cytotoxicity assay, HepG2; type: cell-based, human; conditions: 48 h exposure
In short: (§1)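 Cells in DMEM with 10% FBS were seeded and allowed to attach for 24 h. They were then exposed to compound dilutions for 48 h at 37 °C, 5% CO2. Viability was measured by MTT (4 h), with formazan dissolved in DMSO and read at 570 nm.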

[3] = system: SMMC-7721 cells; test: AO/EB double staining assay; type: cell-based, human; conditions: 0.3, 0.6 and 1.2 μM, 48 h
From the text: Apoptosis induced by compound 5f was further evaluated using acridine orange / ethidium bromide (AO/EB) double staining. AO, as a vital dye showing green fluorescence, can pass through cell membrane of living or dead cells, while EB only stains apoptotic or necrotic cells that have lost their integrity and appear red fluorescence. Therefore, the normal cells will be stained only by AO with bright green while apoptotic cells will be stained by AO and EB with red-orange [26, 27].
SMMC-7721 cells were seeded into six-well plates and incubated at 37 °C with 5% CO2 for 24 h. Then, the cells were exposed to different concentrations of compound 5f (0, 0.3, 0.6, and 1.2 μM) for 48 h. After that, 10 μL of each fluorescent dye cantaining AO and EB (10 μg/mL) were added to each well in equal volumes respectively and incubated for 5 min in the dark. The cells were visualized through an inverted fluorescence microscope (Olympus 1X71 Inverted System Microscope, Olympus, Tokyo, Japan).

[4] = system: LO2 cells; test: MTT cytotoxicity assay, normal hepatocyte LO2; type: cell-based; conditions: Homo sapiens, L02, 48 h exposure, normal hepatocyte cell line
In short: as §1

inhibition at 100 µM [1]: 0%
SMILES: Cc1ccc2[nH]c3c(c2c1)C[C@@]1(C)C(CC[C@]2(C)C1CC=C1C4[C@@H](C)[C@H](C)CC[C@]4(C(=O)NCCCN4CCN(C)CC4)CC[C@]12C)C3(C)C (some centres unmarked) [5f, N-(3-(4-Methylpiperazin-1-yl)propyl)-5′-methyl-1′H-ursa-2,12-dieno[3,2-b]indol-28-carboxamide]
IC50 [2]: 0.91 ± 0.13 µM
IC50 ([2]; Homo sapiens, HepG2, 48 h): ~1 µM
apoptosis by AO/EB staining (fluorescence microscopy) [3]: induced apoptosis
IC50 [4]: 10.6 ± 0.52 µM
